Reference: paper PMC7156458, “Synthetic biology based construction of biological activity-related library of fungal decalin-containing diterpenoid pyrones” (Nature Communications, 2020)

Target: Aβ42 (Homo sapiens, UniProt P05067)
Test: Th-T (thioflavin-T) assay of Aβ42 aggregation
Type: biochemical
Conditions: for Th-T assay plate reading, mean of three wells (Supplementary Fig. 47): source data, Ab alone and No Ab as controls

Aβ42, sequence (P05067 672-713): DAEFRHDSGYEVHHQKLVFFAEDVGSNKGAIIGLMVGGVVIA

`C=C1CCC2C(C)(CC(=O)C=C(C)C)C(O)CCC2(C)C1Cc1c(O)c(C)c(C)oc1=O` (centres unmarked) [Compound 7] was tested, and the “Th-T fluorescence, mean of three wells” value (Aβ42 aggregation time course, reading M117) was 3.444, the “Th-T fluorescence, mean of three wells” value (Aβ42 aggregation time course, reading M118) was 3.462 and the “Th-T fluorescence, mean of three wells” value (Aβ42 aggregation time course, reading M119) was 3.421. For the same compound, the “Th-T fluorescence, mean of three wells” value (Aβ42 aggregation time course, reading M120) was 3.485, the “Th-T fluorescence, mean of three wells” value (Aβ42 aggregation time course, reading M121) was 3.437 and the “Th-T fluorescence, mean of three wells” value (Aβ42 aggregation time course, reading M122) was 3.4838. The “Th-T fluorescence, mean of three wells” value (Aβ42 aggregation time course, reading M123) was 3.463, the “Th-T fluorescence, mean of three wells” value (Aβ42 aggregation time course, reading M124) was 3.451 and the “Th-T fluorescence, mean of three wells” value (Aβ42 aggregation time course, reading M125) was 3.454. The “Th-T fluorescence, mean of three wells” value (Aβ42 aggregation time course, reading M126) was 3.465, the “Th-T fluorescence, mean of three wells” value (Aβ42 aggregation time course, reading M127) was 3.446 and the “Th-T fluorescence, mean of three wells” value (Aβ42 aggregation time course, reading M128) was 3.459. For the same compound, the “Th-T fluorescence, mean of three wells” value (Aβ42 aggregation time course, reading M129) was 3.461, the “Th-T fluorescence, mean of three wells” value (Aβ42 aggregation time course, reading M130) was 3.435 and the “Th-T fluorescence, mean of three wells” value (Aβ42 aggregation time course, reading M131) was 3.434. For the same compound, the “Th-T fluorescence, mean of three wells” value (Aβ42 aggregation time course, reading M132) was 3.446, the “Th-T fluorescence, mean of three wells” value (Aβ42 aggregation time course, reading M133) was 3.459 and the “Th-T fluorescence, mean of three wells” value (Aβ42 aggregation time course, reading M134) was 3.427. For the same compound, the “Th-T fluorescence, mean of three wells” value (Aβ42 aggregation time course, reading M135) was 3.416, the “Th-T fluorescence, mean of three wells” value (Aβ42 aggregation time course, reading M136) was 3.414 and the “Th-T fluorescence, mean of three wells” value (Supplementary Fig. 47, reading M137) was 3.399. The “Th-T fluorescence, mean of three wells” value (Supplementary Fig. 47, reading M138) was 3.412, the “Th-T fluorescence, mean of three wells” value (Supplementary Fig. 47, reading M139) was 3.411 and the “Th-T fluorescence, mean of three wells” value (Supplementary Fig. 47, reading M140) was 3.433. The “Th-T fluorescence, mean of three wells” value (Supplementary Fig. 47, reading M141) was 3.413, the “Th-T fluorescence, mean of three wells” value (Supplementary Fig. 47, reading M142) was 3.437 and the “Th-T fluorescence, mean of three wells” value (Supplementary Fig. 47, reading M143) was 3.394. The “Th-T fluorescence, mean of three wells” value (Supplementary Fig. 47, reading M144) was 3.432, the “Th-T fluorescence, mean of three wells” value (Supplementary Fig. 47, reading M145) was 3.431 and the “Th-T fluorescence, mean of three wells” value (Supplementary Fig. 47 source data, measurement M37 of time course) was 3.548. For the same compound, the “Th-T fluorescence, mean of three wells” value (Supplementary Fig. 47 source data, measurement M38 of time course) was 3.519, the “Th-T fluorescence, mean of three wells” value (Supplementary Fig. 47 source data, measurement M39 of time course) was 3.507 and the “Th-T fluorescence, mean of three wells” value (Supplementary Fig. 47 source data, measurement M40 of time course) was 3.528. The “Th-T fluorescence, mean of three wells” value (Supplementary Fig. 47 source data, measurement M41 of time course) was 3.5472, the “Th-T fluorescence, mean of three wells” value (Supplementary Fig. 47 source data, measurement M42 of time course) was 3.534 and the “Th-T fluorescence, mean of three wells” value (Supplementary Fig. 47 source data, measurement M43 of time course) was 3.54. For the same compound, the “Th-T fluorescence, mean of three wells” value (Supplementary Fig. 47 source data, measurement M44 of time course) was 3.555, the “Th-T fluorescence, mean of three wells” value (Supplementary Fig. 47 source data, measurement M45 of time course) was 3.57 and the “Th-T fluorescence, mean of three wells” value (Supplementary Fig. 47 source data, measurement M46 of time course) was 3.557. For the same compound, the “Th-T fluorescence, mean of three wells” value (Supplementary Fig. 47 source data, measurement M47 of time course) was 3.602, the “Th-T fluorescence, mean of three wells” value (Supplementary Fig. 47 source data, measurement M48 of time course) was 3.575 and the “Th-T fluorescence, mean of three wells” value (Supplementary Fig. 47 source data, measurement M49 of time course) was 3.594. The “Th-T fluorescence, mean of three wells” value (Supplementary Fig. 47 source data, measurement M50 of time course) was 3.623, the “Th-T fluorescence, mean of three wells” value (Supplementary Fig. 47 source data, measurement M51 of time course) was 3.626 and the “Th-T fluorescence, mean of three wells” value (Supplementary Fig. 47 source data, measurement M52 of time course) was 3.602. The “Th-T fluorescence, mean of three wells” value (Supplementary Fig. 47 source data, measurement M53 of time course) was 3.622, the “Th-T fluorescence, mean of three wells” value (Supplementary Fig. 47 source data, measurement M54 of time course) was 3.589 and the “Th-T fluorescence, mean of three wells” value (Supplementary Fig. 47 source data, measurement M55 of time course) was 3.592. The “Th-T fluorescence, mean of three wells” value (Supplementary Fig. 47 source data, measurement M56 of time course) was 3.6022, the “Th-T assay plate reading, mean of three wells (Supplementary Fig. 47)” value (from here on “Th-T assay plate reading, mean”) (measurement M1) was 0.291 and the “Th-T assay plate reading, mean” value (measurement M2) was 0.3102. For the same compound, the “Th-T assay plate reading, mean” value (measurement M3) was 0.3462, the “Th-T assay plate reading, mean” value (measurement M4) was 0.3847 and the “Th-T assay plate reading, mean” value (measurement M5) was 0.4026. The “Th-T assay plate reading, mean” value (measurement M6) was 0.4778, the “Th-T assay plate reading, mean” value (measurement M7) was 0.5127 and the “Th-T assay plate reading, mean” value (measurement M8) was 0.5767. The “Th-T assay plate reading, mean” value (measurement M9) was 0.6534, the “Th-T assay plate reading, mean” value (measurement M10) was 0.7067 and the “Th-T assay plate reading, mean” value (measurement M11) was 0.7325. The “Th-T assay plate reading, mean” value (measurement M12) was 0.7635, the “Th-T assay plate reading, mean” value (measurement M13) was 0.7892 and the “Th-T assay plate reading, mean” value (measurement M14) was 0.8105. The “Th-T assay plate reading, mean” value (measurement M15) was 0.8372, the “Th-T assay plate reading, mean” value (measurement M16) was 0.8682 and the “Th-T fluorescence, mean of three wells” value (reading M17, Supplementary Fig. 47 source data) was 0.9169. For the same compound, the “Th-T fluorescence, mean of three wells” value (reading M18, Supplementary Fig. 47 source data) was 0.9995, the “Th-T fluorescence, mean of three wells” value (reading M19, Supplementary Fig. 47 source data) was 1.135 and the “Th-T fluorescence, mean of three wells” value (reading M20, Supplementary Fig. 47 source data) was 1.37. The “Th-T fluorescence, mean of three wells” value (reading M21, Supplementary Fig. 47 source data) was 1.709, the “Th-T fluorescence, mean of three wells” value (reading M22, Supplementary Fig. 47 source data) was 2.121 and the “Th-T fluorescence, mean of three wells” value (reading M23, Supplementary Fig. 47 source data) was 2.518. For the same compound, the “Th-T fluorescence, mean of three wells” value (reading M24, Supplementary Fig. 47 source data) was 2.859, the “Th-T fluorescence, mean of three wells” value (reading M25, Supplementary Fig. 47 source data) was 3.1034 and the “Th-T fluorescence, mean of three wells” value (reading M26, Supplementary Fig. 47 source data) was 3.2675. The “Th-T fluorescence, mean of three wells” value (reading M27, Supplementary Fig. 47 source data) was 3.339, the “Th-T fluorescence, mean of three wells” value (reading M28, Supplementary Fig. 47 source data) was 3.364 and the “Th-T fluorescence, mean of three wells” value (reading M29, Supplementary Fig. 47 source data) was 3.378. For the same compound, the “Th-T fluorescence, mean of three wells” value (reading M30, Supplementary Fig. 47 source data) was 3.446, the “Th-T fluorescence, mean of three wells” value (reading M31, Supplementary Fig. 47 source data) was 3.431 and the “Th-T fluorescence, mean of three wells” value (reading M32, Supplementary Fig. 47 source data) was 3.47. The “Th-T fluorescence, mean of three wells” value (reading M33, Supplementary Fig. 47 source data) was 3.448, the “Th-T fluorescence, mean of three wells” value (reading M34, Supplementary Fig. 47 source data) was 3.489 and the “Th-T fluorescence, mean of three wells” value (reading M35, Supplementary Fig. 47 source data) was 3.5187. For the same compound, the “Th-T fluorescence, mean of three wells” value (reading M36, Supplementary Fig. 47 source data) was 3.503, the “Th-T fluorescence, mean of three wells” value (time course, reading M57) was 3.603 and the “Th-T fluorescence, mean of three wells” value (time course, reading M58) was 3.607. For the same compound, the “Th-T fluorescence, mean of three wells” value (time course, reading M59) was 3.578, the “Th-T fluorescence, mean of three wells” value (time course, reading M60) was 3.583 and the “Th-T fluorescence, mean of three wells” value (time course, reading M61) was 3.605. For the same compound, the “Th-T fluorescence, mean of three wells” value (time course, reading M62) was 3.61, the “Th-T fluorescence, mean of three wells” value (time course, reading M63) was 3.6015 and the “Th-T fluorescence, mean of three wells” value (time course, reading M64) was 3.57. The “Th-T fluorescence, mean of three wells” value (time course, reading M65) was 3.572, the “Th-T fluorescence, mean of three wells” value (time course, reading M66) was 3.5992 and the “Th-T fluorescence, mean of three wells” value (time course, reading M67) was 3.63. For the same compound, the “Th-T fluorescence, mean of three wells” value (time-course reading M97, Supplementary Fig. 47 source data) was 3.5286, the “Th-T fluorescence, mean of three wells” value (time-course reading M98, Supplementary Fig. 47 source data) was 3.531 and the “Th-T fluorescence, mean of three wells” value (time-course reading M99, Supplementary Fig. 47 source data) was 3.498. For the same compound, the “Th-T fluorescence, mean of three wells” value (time-course reading M100, Supplementary Fig. 47 source data) was 3.513, the “Th-T fluorescence, mean of three wells” value (time-course reading M101, Supplementary Fig. 47 source data) was 3.502 and the “Th-T fluorescence, mean of three wells” value (time-course reading M102, Supplementary Fig. 47 source data) was 3.488. The “Th-T fluorescence, mean of three wells” value (time-course reading M103, Supplementary Fig. 47 source data) was 3.486, the “Th-T fluorescence, mean of three wells” value (time-course reading M104, Supplementary Fig. 47 source data) was 3.491 and the “Th-T fluorescence, mean of three wells” value (time-course reading M105, Supplementary Fig. 47 source data) was 3.477. For the same compound, the “Th-T fluorescence, mean of three wells” value (time-course reading M106, Supplementary Fig. 47 source data) was 3.476, the “Th-T fluorescence, mean of three wells” value (time-course reading M107, Supplementary Fig. 47 source data) was 3.493 and the “Th-T fluorescence, mean of three wells” value (time-course reading M108, Supplementary Fig. 47 source data) was 3.51. The “Th-T fluorescence, mean of three wells” value (time-course reading M109, Supplementary Fig. 47 source data) was 3.4898, the “Th-T fluorescence, mean of three wells” value (time-course reading M110, Supplementary Fig. 47 source data) was 3.516 and the “Th-T fluorescence, mean of three wells” value (time-course reading M111, Supplementary Fig. 47 source data) was 3.513. The “Th-T fluorescence, mean of three wells” value (time-course reading M112, Supplementary Fig. 47 source data) was 3.526, the “Th-T fluorescence, mean of three wells” value (time-course reading M113, Supplementary Fig. 47 source data) was 3.459 and the “Th-T fluorescence, mean of three wells” value (time-course reading M114, Supplementary Fig. 47 source data) was 3.543. The “Th-T fluorescence, mean of three wells” value (time-course reading M115, Supplementary Fig. 47 source data) was 3.464 and the “Th-T fluorescence, mean of three wells” value (time-course reading M116, Supplementary Fig. 47 source data) was 3.458.
